A short description of the data set: Chromatographic fingerprinting (HPLC-PDA contour and 3-D chromatograms) with interpretation of chemical and therapeutic properties by polarity and conjugation zones. The note with it: for Change of the molecules with time in the media (fingerprints at different time intervals): different time intervals under chemical conditions.

Structures are written as SMILES. Entries after “also recorded” stand apart in the source; their conditions may differ.

As to `Cc1ccc(-c2cc(C(F)(F)F)nn2-c2ccc(S(N)(=O)=O)cc2)cc1` [Celebocoxib], the “Action compared to the other medicines of the same group” value is “different in action”.

For the compound `O=C(/C=C/c1ccc(O)c(O)c1)O[C@@H]1C[C@](O)(C(=O)O)C[C@@H](O)[C@H]1O` [Chlorogenic acid], the “Change of the molecules with time in the media (fingerprints at different time intervals)” value is on record as “under go changes”.

With `CC(C)=CCC/C(C)=C/C=C/C(C)=C/C=C/C(C)=C/C=C/C=C(C)/C=C/C=C(C)/C=C/C=C(\C)CCC=C(C)C` [Lycopine], the “Therapeutic property / site of action interpreted from the fingerprint” value is “shrothoshodhaka property; also recorded: stress reliever” and the “Change of the molecules with time in the media (fingerprints at different time intervals)” value is given as “under go changes; also recorded: slowly diminished with time”.

Consider `CC12CC3CC(C)(C1)CC(N)(C3)C2` [Mamentane], for which the “Effect when consumed excessively, interpreted from the fingerprint” value (excessive use) is “effect on Maha srothas”.

In the case of `COc1ccc2[nH]c([S+]([O-])Cc3ncc(C)c(OC)c3C)nc2c1` (stereo not shown) [Onmeprazole], the “Therapeutic property interpreted from the fingerprint” value is “Ropaneeya property” (simulated acidic condition) and “has not acted so” (the other prakrithi).

(Values after patent US20070288217A1, “Method for Standardization of Chemical and Therapeutic Values of Foods and Medicines Using Animated Chromatographic Fingerprinting” (priority 2004, published 2007).)
